Experimental data taken from patent US20050020580A1, “Materials and methods for the prevention or treatment of apoptosis and apoptosis-related diseases and conditions” (priority 2002, published 2005).
Like-named read-outs stand apart in the source and are kept apart here.

Columns and labels:
Jurkat T cells [1] = experiment: Fas signaling in Jurkat T cells stimulated with CH-11 anti-Fas antibody; assay type: cell-based
Description: Annexin-V and Propidium Iodide Staining. […] Western Blot Analysis. […] Fluorometric Caspase 8 and 3 Activity.

[2] = Mouse pharmacokinetic studies: plasma drug concentrations by LC/MS/MS; assay type: in vivo, mice (BALB/C); settings: oral
Experimental: Administration of PI for Experimental Protocols: Six to eight-week-old BALB/C mice (Jackson Labs, Bar Harbor, Me.) were acclimatized for one week before receiving either control vehicle or PI by gavage. PIs were prepared by dissolving 1% weight per volume carboxymethylcellulose and 15 mg/mL Nelfinavir (NFV) oral powder (commercial preparation, Agouron Laboratories, La Jolla, Calif.) in 2% ethanol in distilled water. […] The PI mixture was administered every 8 hours for the indicated number of doses and mice were either sacrificed for pharmacokinetic studies or treated as described. Histopathology was performed by a consulting veterinary pathologist who was blinded as to the nature of experimental treatments.
Immediately preceding the fourth dose and every two hours post gavage until hour 8, plasma drug concentrations were assayed. At both doses, NFV was undetectable (i.e. <2.5 ng/mL) 6 hours after dosing.
Drug levels were assessed in two mice each for several time-points. NFV levels were 8172 and 8914 ng/mL at 1 hour, 5999 and 6006 ng/mL at 2 hours, 5559 and 6048 ng/mL at 3 hours, and 4005 to 4217 ng/mL at 4 hours post-dosing.

Pseudomonas aeruginosa = experiment: Minimal inhibitory concentration (MIC), NCCLS guidelines
[3] = NFV and RIT concentrations in brain tissues of mice given NFV/RIT suspension; assay type: in vivo; settings: 3 doses of NFV/RIT suspension, whole brain removed immediately preceding the fourth dose, two mice; for concentration at 8 h: C57BL/6, mouse, brain, oral
Experimental: Supernatants were then analyzed as described herein for drug level determination. […] Given the significant drug levels achieved in the brains of these mice, the effects of PI in a mouse model of stroke could be examined.

Eschericheria coli = experiment: Minimal inhibitory concentration (MIC), NCCLS guidelines; assay type: cell-based; settings: five clinical isolates
wild type yeast = experiment: Yeast clonogenic assay of apoptosis (Vpr peptide or H2O2); assay type: cell-based, Saccharomyces cerevisiae; settings: varying doses
PTPC = PTPC proteoliposomes, 4-MUP fluorescence release; assay type: biochemical, rat; settings: increasing doses of NFV
Experimental: Liposome technology: PTPC (1 mg/ml) was separated from rat brains and ANT (0.1 mg/ml) from rat heart mitochondria as previously described (Brenner, C. et al. Methods Enzymol 322, 243-52, 2000; Marzo, I. et al. Biomed Pharmacother 52, 248-51, 1998). Immediately after purification, pure proteins were reconstituted into proteoliposomes (phosphatidylcholin/cholesterol [5:1;w:w] for PTPC and phosphatidylcholin/cardiolipin [45:1; w:w] for ANT) (Belzacq, A. S. et al. Cancer Res 63, 541-6, 2003). […] S. et al. Cancer Res 63, 541-6, 2003). 25 μl of proteoliposomes were incubated with the indicated agents (30 min for NFV and 60 min for ATR and Vpr52-96 at RT). […] The release of 4-MU was measured by spectrofluorimetry (excitation wave length 360 nm; emission wave length 450 nm). The maximum 4-MUP release was determined by adding 5% Triton X-100 to proteoliposomes. The percentage of 4-MUP release induced by treatment of liposomes by ATR was determined as [(ATR−treated liposomes fluorescence−untreated liposomes fluorescence)/(TX-100-treated liposomes fluorescence−untreated liposomes fluorescence)]×100. The maximal fluorescence induced by 800 μM ATR was then identified as 100% 4-MUP release and the fluorescence induced by the treatment of liposomes by another product or another dose was calculated as a percentage of ATR-induced 4-MUP release.

[4] = co-administration of RIT with NFV in human subjects (Raines et al.); cited from earlier work
Enterococcus = experiment: Minimal inhibitory concentration (MIC), NCCLS guidelines
ANT = biological target: T1, ANT (Rattus norvegicus, UniProt Q05962); experiment: ANT proteoliposomes, 4-MUP fluorescence release; assay type: biochemical; settings: p<0.05
T1 construct: ANT (0.1 mg/ml) from rat heart mitochondria; from tissue; host or cells: rat heart mitochondria
T1 sequence (Q05962 1-298): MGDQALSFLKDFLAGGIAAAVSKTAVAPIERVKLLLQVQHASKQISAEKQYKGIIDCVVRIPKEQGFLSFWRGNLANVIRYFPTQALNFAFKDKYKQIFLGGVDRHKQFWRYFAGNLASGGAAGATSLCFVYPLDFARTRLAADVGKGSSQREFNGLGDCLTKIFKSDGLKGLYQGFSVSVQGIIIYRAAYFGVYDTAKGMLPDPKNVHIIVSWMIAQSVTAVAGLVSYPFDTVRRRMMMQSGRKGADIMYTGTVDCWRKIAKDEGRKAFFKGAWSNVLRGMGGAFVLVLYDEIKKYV
Experimental: Liposome technology: PTPC (1 mg/ml) was separated from rat brains and ANT (0.1 mg/ml) from rat heart mitochondria as previously described (Brenner, C. et al. Methods Enzymol 322, 243-52, 2000; Marzo, I. et al. Biomed Pharmacother 52, 248-51, 1998). Immediately after purification, pure proteins were reconstituted into proteoliposomes (phosphatidylcholin/cholesterol [5:1;w:w] for PTPC and phosphatidylcholin/cardiolipin [45:1; w:w] for ANT) (Belzacq, A. S. et al. Cancer Res 63, 541-6, 2003). […] The release of 4-MU was measured by spectrofluorimetry (excitation wave length 360 nm; emission wave length 450 nm). The maximum 4-MUP release was determined by adding 5% Triton X-100 to proteoliposomes. The percentage of 4-MUP release induced by treatment of liposomes by ATR was determined as [(ATR−treated liposomes fluorescence−untreated liposomes fluorescence)/(TX-100-treated liposomes fluorescence−untreated liposomes fluorescence)]×100. The maximal fluorescence induced by 800 μM ATR was then identified as 100% 4-MUP release and the fluorescence induced by the treatment of liposomes by another product or another dose was calculated as a percentage of ATR-induced 4-MUP release.

Streptococcus bovis = experiment: Minimal inhibitory concentration (MIC), NCCLS guidelines; settings: Streptococcus equinus
hepatocytes = experiment: Fas signaling ex vivo in hepatocytes from mice challenged with IV Jo-2; settings: hepatocytes from pretreated mice
Experimental: Hepatocyte isolation: Four hours after treatment with 7.5 μg of Jo-2 antibody, mice were euthanized with pentobarbital (60 mg/kg, Abbott), and hepatocytes isolated via a two-step collagenase digestion (Seglen, P. O. Methods Cell Biol 13, 29-83, 1976). Following red cell lysis, hepatocytes were enumerated and evaluated for loss of ΔΨm, and caspase 8 and 3 activity. Fluorometric Caspase 8 and 3 Activity.

RAW264.7 cells = assay type: cell-based, mouse
Jurkat T cells [5] = experiment: Apoptosis by selective PTPC agonists (ATR, STS, PK11195) in Jurkat T cells

SMILES: Cc1c(O)cccc1C(=O)N[C@@H](CSc1ccccc1)[C@H](O)CN1C[C@H]2CCCC[C@H]2C[C@H]1C(=O)NC(C)(C)C [NFV, nelfinavir]
- Procaspase 8 cleavage and activity, and Bid cleavage vs vehicle control cells (Jurkat T cells [1]; NFV pretreated, CH-11): similar
- ΔΨm (loss of DiOC6 retention), cytochrome c release, caspase 9, and caspase 3 cleavage and activity (Jurkat T cells [1]; NFV pretreatment, CH-11): reduced
- Apoptosis (Annexin positivity) after CH-11 anti-CD95 antibody (Jurkat T cells [1]; NFV pretreatment, varying concentrations): dose-dependent reduction in apoptosis
- concentration at 6 h ([2]; BALB/C, NFV alone, 125 mg/kg or 250 mg/kg every 8 hours by gavage, BALB/C mice, read-out: NFV plasma drug concentration 6 hours after dosing): < 2.5 ng/mL
- Cmax ([2]; pharmacokinetic studies in mice (data not shown)): ~8 µM
- MIC (Pseudomonas aeruginosa): > 10 µM
- Levels of NFV in brain tissue [3]: 986 μg/gm of brain tissue
- concentration at 8 h ([3]; read-out: Levels of NFV in brain tissue): 682000 ng/g
- MIC (Eschericheria coli): > 10 µM
- Apoptosis induced by H2O2 (viability) (wild type yeast): inhibited in a dose responsive manner
- Apoptosis induced by Vpr (viability) (wild type yeast): inhibited in a dose responsive manner
- ATR induced fluorescence release from PTPC liposomes (PTPC): progressively inhibited
- Levels of NFV compared to NFV alone [4]: significantly increased
- MIC (Enterococcus): > 10 µM
- ATR induced release of fluorescence from ANT liposomes (ANT): inhibited
- Vpr induced release of fluorescence from ANT liposomes (ANT): inhibited
- MIC (Streptococcus bovis): > 10 µM
- ΔΨm loss (hepatocytes): inhibited
- Apoptosis induced by PA and LT (RAW264.7 cells): significantly inhibited in a dose responsive manner
- PK11195 induced apoptosis, ΔΨm, cytochrome c release, caspase 9, caspase 3 and PARP cleavage (Jurkat T cells [5]; PBR agonist PK11195, NFV pretreated): not altered
- STS induced apoptosis, ΔΨm, cytochrome c release, caspase 9, caspase 3 and PARP cleavage (Jurkat T cells [5]; VDAC agonist STS, NFV pretreated): not altered

SMILES: CC(C)c1nc(CN(C)C(=O)N[C@H](C(=O)N[C@@H](Cc2ccccc2)C[C@H](O)[C@H](Cc2ccccc2)NC(=O)OCc2cncs2)C(C)C)cs1 [RIT, ritonavir]
- RIT levels in brain tissue [3]: 32 μg/gm of brain tissue
- concentration at 8 h ([3]; RIT levels in brain tissue): 38000 ng/g
